Experimental data as given in patent US20160289594A1, “USE OF CNGA2 AGONISTS FOR ENHANCING THE OLFACTORY EFFECT OF AN ODORANT” (Henkel AG & Co. KGaA, priority 2013, published 2016).

System: CNGA2 ion channel
Assay: Experiments with skatole on direct activation of the CNGA2 ion channel
Format: cell-based, human
Conditions: CNGA2 ion channel of all odor receptor cells, in addition to specific odor receptors

## Cc1c[nH]c2ccccc12 [skatole, 3-methylindole]
  Activation of the CNGA2 ion channel: directly activates
